Experimental data published in BindingDB's records for doi:10.1021/acs.jmedchem.7b00901 (University of South Australia, 2018).
pIC50: −log10 of the molar value.

Target: Cyclin-dependent kinase inhibitor 1 (Homo sapiens, UniProt P38936)
Assay: Inhibition of p21 (unknown origin)-induced transcription in human HT1080 p21-9-CMV-GFP cells after 3 days by fluorescence assay

Cyclin-dependent kinase inhibitor 1, sequence (P38936 whole entry): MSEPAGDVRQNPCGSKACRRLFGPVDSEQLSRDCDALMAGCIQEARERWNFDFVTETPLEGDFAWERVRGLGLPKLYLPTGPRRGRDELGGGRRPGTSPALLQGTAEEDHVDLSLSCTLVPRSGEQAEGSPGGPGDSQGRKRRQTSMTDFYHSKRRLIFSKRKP

- pIC50: 6.19
Compound: N#Cc1ccc2ncnc(NCCc3ccccc3)c2c1
